Test results: patent US10392354B2, “Highly selective anti-cancer agents targeting non-small cell lung cancer and other forms of cancer” (The University of Toledo, priority 2013, dated 2019)

What was measured:
Format in all cases: cell-based
NCI-H522 cells = assay: lethality / cell viability of NCI-H522 cells; conditions: for lethality / activity on NCI-H522 cell line: concentration not given
Method: FIGS. 5A-5C: The effect of compound 1f on NCI-H522 cells at 10 μM. […] Interval between images shown is 1 hour.
FIGS. 5A-5C show the effects of 1f on NCI-H522 cells at 10 μM.
The effects of compound 2 on NCI-H522 cells, other cancer cells, and normal cell lines were evaluated. […] FIGS. 3A-3C show the effects of compound 2 on tubulin and mitochondrial function.

mitochondrial potential = assay: TMRE staining of mitochondrial membrane potential in NCI-H522 cells; conditions: during the death process
Method: (§1) FIGS. 3A-3C: The effect of compound 2 (10 μM) on tubulin and mitochondrial function. […] Arrowheads: two cells that have lost mitochondrial membrane potential; phase contrast indicates these are dead cells.
(§2) The effects of compound 2 on NCI-H522 cells, other cancer cells, and normal cell lines were evaluated. Compound 2 killed NCI-H522 cells at 10 μM. […] FIGS. 3A-3C show the effects of compound 2 on tubulin and mitochondrial function.

tubulin = assay: cell staining with antibodies to tubulin in NCI-H522 cells; conditions: in interphase or mitosis
Method: as §1, §2

Structure (SMILES) | lethality / activity on NCI-H522 cell line (NCI-H522 cells) | mitochondrial membrane potentials (mitochondrial potential) | effects on tubulin (tubulin) | cell killing of NCI-H522 cells (NCI-H522 cells; 10 μM)
C#Cc1nc(C2=C(C)C(=O)CC2)cs1 [Compound 3, 3-(2-ethynylthiazol-4-yl)-2-methylcyclopent-2-enone] | lethal |  |  | 
C#Cc1nc(C2=C(C)[C@@H](O)CC2)cs1 [Compound 2] |  | intact until late in the death process | no overt effects | killed
C#Cc1nc(C2=C(C)C(=O)C(Cc3ccccc3)C2)cs1 (centres unmarked) [Compound 4, 5-benzyl-3-(2-ethynylthiazol-4-yl)-2-methylcyclopent-2-enone] | did not compromise |  |  | 
